Test results: PubChem BioAssay (NCI)
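Five compound concentrations were applied to cells in 96-well plates for 48 hours; endpoints were derived by simple linear interpolation of the resulting dose-response curve. GI50 marks 50% less growth. TGI: concentration producing complete growth inhibition.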

How the values were obtained:
Assay in all cases: NCI tumour cell line growth inhibition, 48 h
[1] = test system: 786-0 renal
[2] = test system: A498 renal
[3] = test system: A549 NSCLC
[4] = test system: ACHN renal
[5] = test system: BT-549 breast
[6] = test system: CAKI-1 renal
[7] = test system: CCRF-CEM leukemia
[8] = test system: COLO 205 colon
[9] = test system: DU-145 prostate
[10] = test system: EKVX NSCLC
[11] = test system: HCC-2998 colon
[12] = test system: HCT-116 colon
[13] = test system: HCT-15 colon
[14] = test system: HL-60(TB) leukemia
[15] = test system: HOP-62 NSCLC
[16] = test system: HOP-92 NSCLC
[17] = test system: HS 578T breast
[18] = test system: HT29 colon
[19] = test system: K-562 leukemia
[20] = test system: KM12 colon
[21] = test system: LOX IMVI melanoma
[22] = test system: MALME-3M melanoma
[23] = test system: MCF7 breast
[24] = test system: MDA-MB-231 breast
[25] = test system: MDA-MB-435
[26] = test system: MOLT-4 leukemia
[27] = test system: NCI-H226 lung
[28] = test system: NCI-H23 lung
[29] = test system: NCI-H460 lung
[30] = test system: NCI/ADR-RES ovarian
[31] = test system: OVCAR-3 ovarian
[32] = test system: OVCAR-4 ovarian
[33] = test system: OVCAR-5 ovarian
[34] = test system: OVCAR-8 ovarian
[35] = test system: PC-3 prostate
[36] = test system: RPMI-8226 leukemia
[37] = test system: RXF 393 renal
[38] = test system: SF-268 CNS
[39] = test system: SF-295 CNS
[40] = test system: SF-539 CNS
[41] = test system: SK-MEL-2 melanoma
[42] = test system: SK-MEL-28 melanoma
[43] = test system: SK-MEL-5 melanoma
[44] = test system: SK-OV-3 ovarian
[45] = test system: SN12C renal
[46] = test system: SNB-19 CNS
[47] = test system: SNB-75 CNS
[48] = test system: SR leukemia
[49] = test system: SW-620 colon
[50] = test system: T-47D breast
[51] = test system: TK-10 renal
[52] = test system: U251 CNS
[53] = test system: UACC-257 melanoma
[54] = test system: UACC-62 melanoma
[55] = test system: UO-31 renal

## COc1ccc(CN2C(=O)C(Cl)=C(Nc3cccc(C(F)(F)F)c3)C2=O)cc1
[1]
  GI50: 8.02 µM
  TGI: 30.1 µM
[2]
  GI50: 2.61 µM
  TGI: 9.02 µM
[3]
  GI50: 8.54 µM
  TGI: > 100 µM
[4]
  GI50: 6.71 µM
  TGI: 20.5 µM
[5]
  GI50: 1.58 µM
  TGI: 14.8 µM
[6]
  GI50: 5.16 µM
  TGI: 24.4 µM
[7]
  GI50: 2.54 µM
  TGI: 17.4 µM
[8]
  GI50: 5.07 µM
  TGI: 18.8 µM
[9]
  GI50: 8.19 µM
  TGI: 21.6 µM
[10]
  GI50: 8.34 µM
  TGI: 68.7 µM
[11]
  GI50: 8.46 µM
  TGI: 25.9 µM
[12]
  GI50: 3.45 µM
  TGI: 15.4 µM
[13]
  GI50: 3.69 µM
  TGI: 17.6 µM
[14]
  GI50: 2.56 µM
  TGI: 19.5 µM
[15]
  GI50: 18.2 µM
  TGI: > 100 µM
[16]
  GI50: 0.885 µM
  TGI: 27 µM
[17]
  GI50: 3.14 µM
  TGI: 13.1 µM
[18]
  GI50: 4.55 µM
  TGI: 19.7 µM
[19]
  GI50: 3.26 µM
  TGI: 51.5 µM
[20]
  GI50: 7.83 µM
  TGI: 25.6 µM
[21]
  GI50: 3.08 µM
  TGI: 14.1 µM
[22]
  GI50: 2.99 µM
  TGI: 22.7 µM
[23]
  GI50: 2.7 µM
  TGI: 17.2 µM
[24]
  GI50: 3.39 µM
  TGI: 18 µM
[25]
  GI50: 2.77 µM
  TGI: 9.12 µM
[26]
  GI50: 2.39 µM
  TGI: 9.29 µM
[27]
  GI50: 2.57 µM
  TGI: 17.4 µM
[28]
  GI50: 8.08 µM
  TGI: 42.4 µM
[29]
  GI50: 3.1 µM
  TGI: 15.1 µM
[30]
  GI50: 7.43 µM
  TGI: 45.6 µM
[31]
  GI50: 4.19 µM
  TGI: 15.8 µM
[32]
  GI50: 4.74 µM
  TGI: 30.6 µM
[33]
  GI50: 18 µM
  TGI: 48.7 µM
[34]
  GI50: 7.65 µM
  TGI: 30.8 µM
[35]
  GI50: 4.61 µM
  TGI: 37.3 µM
[36]
  GI50: 2.38 µM
  TGI: 23.2 µM
[37]
  GI50: 0.0458 µM
  TGI: 6.01 µM
[38]
  GI50: 3.67 µM
  TGI: 16.6 µM
[39]
  GI50: 3.19 µM
  TGI: 65.3 µM
[40]
  GI50: 1.77 µM
  TGI: 12 µM
[41]
  GI50: 12.3 µM
  TGI: 27.3 µM
[42]
  GI50: 4.89 µM
  TGI: 18.2 µM
[43]
  GI50: 4.38 µM
  TGI: 18.5 µM
[44]
  GI50: 8.67 µM
  TGI: 62.2 µM
[45]
  GI50: 12.4 µM
  TGI: 30.8 µM
[46]
  GI50: 5.09 µM
  TGI: 63.5 µM
[47]
  GI50: 11.9 µM
  TGI: 27.3 µM
[48]
  GI50: 2.77 µM
  TGI: 8.88 µM
[49]
  GI50: 3.61 µM
  TGI: 15.7 µM
[50]
  GI50: 3.88 µM
  TGI: 21.5 µM
[51]
  GI50: 16.8 µM
  TGI: 46.3 µM
[52]
  GI50: 2.75 µM
  TGI: 17 µM
[53]
  GI50: 11.1 µM
  TGI: 27.6 µM
[54]
  GI50: 5.33 µM
  TGI: 19.1 µM
[55]
  GI50: 5.54 µM
  TGI: 32 µM
